# Measurements published in ChEMBL document CHEMBL3132786, “Cytotoxic, immunomodulatory, antimycotic, and antiviral activities of semisynthetic 14-hydroxyabietane derivatives and triptoquinone C-4 epimers” (Medchemcomm, 2013).
# The source made the active and inactive calls. The calls are words filed in the database; no cut-off is given here.
# Columns and labels:
# [1] = tested on: PBMC; assay: Effect on cell cycle distribution in human PBMCs at 14 ug/ml after 15 to 24 hrs by flow cytometry; assay type: ADME, cell-based
# [2] = tested on: Jurkat; assay: Effect on membrane integrity in human Jurkat cells; assay type: functional, cell-based
# [3] = tested on: Jurkat; assay: Cell cycle arrest in human Jurkat cells assessed as hypoploidy at 14 ug/ml after 15 hrs by flow cytometry; assay type: functional
# [4] = tested on: PBMC; assay: Induction of apoptosis in human PBMCs assessed as apoptotic cells at 14 ug/ml after 15 hrs by annexin V/PI-based flow cytometry; assay type: cell-based
# [5] = Antiproliferative activity against PHA-stimulated human CD8+ T cells at 7 to 14 ug/ml after 72 hrs by CFSE fluorescence staining-based flow cytometry; settings: t-cell
# [6] = Antiproliferative activity against PHA-stimulated human CD4+ T cells at 7 to 14 ug/ml after 72 hrs by CFSE fluorescence staining-based flow cytometry; settings: t-cell
# [7] = tested on: Monocyte; assay: Reduction in LPS-induced IL-1beta production in human monocytes at 5 to 15 ug/ml pretreated before LPS addition after 24 hrs by cytometric bead array method; assay type: functional, cell-based
# [8] = tested on: Jurkat; assay: Reduction in membrane potential in human Jurkat cells at 14 ug/ml after 24 hrs using DiOC6(3) by flow cytometry; assay type: functional
# [9] = tested on: Monocyte; assay: Inhibition of differentiation of LPS-stimulated human monocytes assessed as reduction in expression of HLA-DR at 5 to 15 ug/ml after 120 hrs by fluorescence assay; assay type: functional, cell-based
# [10] = tested on: PBMC; assay: Induction of apoptosis in human PBMCs assessed as apoptotic cells at 14 ug/ml after 24 hrs by annexin V/PI-based flow cytometry; assay type: cell-based
# [11] = tested on: Jurkat; assay: Cell cycle arrest in human Jurkat cells assessed as hypoploidy at 14 ug/ml after 24 hrs by flow cytometry; assay type: functional
# [12] = tested on: Jurkat; assay: Cell cycle arrest in human Jurkat cells assessed as accumulation at G2/M phase at 14 ug/ml after 15 hrs by flow cytometry; assay type: functional
# [13] = tested on: Jurkat; assay: Reduction in membrane potential in human Jurkat cells at 7 ug/ml after 15 to 24 hrs using DiOC6(3) by flow cytometry; assay type: functional, cell-based
# [14] = tested on: PBMC; assay: Effect on membrane integrity in human PBMCs; assay type: ADME, cell-based
# [15] = tested on: Vero; assay: Cytotoxicity against african green monkey Vero cells after 48 hrs by MTT assay; assay type: cell-based; settings: chlorocebus sabaeus
# [16] = tested on: PBMC; assay: Effect on cell cycle distribution in human PBMCs assessed as hypoploidy at 14 ug/ml after 15 to 24 hrs by flow cytometry; assay type: ADME, cell-based
# [17] = tested on: Monocyte; assay: Reduction in LPS-induced TNF-alpha production in human monocytes at 5 to 15 ug/ml pretreated before LPS addition after 24 hrs by cytometric bead array method; assay type: functional, cell-based
# [18] = tested on: Jurkat; assay: Induction of apoptosis in human Jurkat cells assessed as apoptotic cells at 14 ug/ml after 24 hrs by annexin V/PI-based flow cytometry; assay type: functional
# [19] = tested on: Jurkat; assay: Induction of apoptosis in human Jurkat cells assessed as DNA damage at 14 ug/ml after 24 hrs by TUNEL assay; assay type: functional
# [20] = tested on: Monocyte; assay: Reduction in IL-1beta production in human monocytes at 5 to 15 ug/ml after 24 hrs by cytometric bead array method; assay type: functional, cell-based
# [21] = tested on: Jurkat; assay: Cell cycle arrest in human Jurkat cells assessed as accumulation at G2/M phase at 14 ug/ml after 24 hrs by flow cytometry; assay type: functional
# [22] = tested on: PBMC; assay: Antiproliferative activity against PHA-stimulated human PBMCs assessed as CD69 expression at 1 to 14 ug/ml treated post PHA stimulation measured after 12 hrs by flow cytometry; assay type: cell-based
# [23] = tested on: PBMC; assay: Antiproliferative activity against PHA-stimulated human PBMCs assessed as CD69 expression pretreated at 1 to 14 ug/ml before PHA stimulation measured after 12 hrs by flow cytometry; assay type: cell-based
# [24] = tested on: Aspergillus niger; assay: Antifungal activity against Aspergillus niger up to 100 ug/ml after 48 hrs by broth dilution method; assay type: functional, organism-based
# [25] = tested on: PBMC; assay: Reduction in membrane potential in human PBMCs at 7 to 14 ug/ml after 15 to 24 hrs using DiOC6(3) by flow cytometry; assay type: ADME, cell-based
# [26] = tested on: Monocyte; assay: Reduction in LPS-induced IL-10 production in human monocytes at 5 to 15 ug/ml pretreated before LPS addition after 24 hrs by cytometric bead array method; assay type: functional, cell-based
# [27] = tested on: Jurkat; assay: Cytotoxicity against human Jurkat cells after 48 hrs by MTT assay; assay type: functional, cell-based
# [28] = tested on: Aspergillus flavus; assay: Antifungal activity against Aspergillus flavus up to 100 ug/ml after 48 hrs by broth dilution method; assay type: functional, organism-based
# [29] = tested on: Aspergillus terreus; assay: Antifungal activity against Aspergillus terreus up to 100 ug/ml after 48 hrs by broth dilution method; assay type: functional, organism-based
# [30] = tested on: Jurkat; assay: Induction of apoptosis in human Jurkat cells assessed as DNA damage at 14 ug/ml after 15 hrs by TUNEL assay; assay type: functional
# [31] = tested on: Jurkat; assay: Reduction in membrane potential in human Jurkat cells at 14 ug/ml after 15 hrs using DiOC6(3) by flow cytometry; assay type: functional
# [32] = tested on: Jurkat; assay: Induction of apoptosis in human Jurkat cells assessed as apoptotic cells at 14 ug/ml after 15 hrs by annexin V/PI-based flow cytometry; assay type: functional
# [33] = tested on: Monocyte; assay: Reduction in TNF-alpha production in human monocytes at 5 to 15 ug/ml after 24 hrs by cytometric bead array method; assay type: functional, cell-based
# [34] = tested on: Monocyte; assay: Reduction in IL-10 production in human monocytes at 5 to 15 ug/ml after 24 hrs by cytometric bead array method; assay type: functional, cell-based
# [35] = tested on: Aspergillus fumigatus; assay: Antifungal activity against Aspergillus fumigatus up to 100 ug/ml after 48 hrs by broth dilution method; assay type: functional, organism-based
# [36] = Selectivity ratio of IC50 for african green monkey Vero cells to IC50 for human Jurkat cells; assay type: ADME, cell-based; settings: Vero cells versus Jurkat cells, read-out: Ratio IC50
# [37] = tested on: Jurkat; assay: Cell cycle arrest in human Jurkat cells assessed as decrease in G0/G1 phase at 14 ug/ml after 15 to 24 hrs by flow cytometry; assay type: functional, cell-based
# [38] = Selectivity ratio of IC50 for african green monkey Vero cells to IC50 for human HeLa cells; assay type: ADME, cell-based; settings: Vero cells versus HeLa cells, read-out: Ratio IC50
# [39] = tested on: HeLa; assay: Cytotoxicity against human HeLa cells after 48 hrs by MTT assay; assay type: functional, cell-based
# [40] = tested on: PBMC; assay: Antiproliferative activity against human PBMCs at 7 to 14 ug/ml after 48 hrs by CFSE fluorescence staining-based flow cytometry; assay type: cell-based
# [41] = tested on: Human alphaherpesvirus 1; assay: Antiviral activity against Herpes simplex virus type 1 infected in HeLa cells assessed as reduction in viral replication after 48 hrs; assay type: functional, organism-based
# [42] = Antiproliferative activity against PHA-stimulated human CD4+ T cells at 14 ug/ml after 72 hrs by CFSE fluorescence staining-based flow cytometry; settings: t-cell
# [43] = tested on: PBMC; assay: Reduction in membrane potential in human PBMCs at 14 ug/ml after 15 hrs using DiOC6(3) by flow cytometry; assay type: ADME, cell-based; design: scale not given: the % may be the effect or the level left
# [44] = Antiproliferative activity against PHA-stimulated human CD8+ T cells at 14 ug/ml after 72 hrs by CFSE fluorescence staining-based flow cytometry; settings: t-cell
# [45] = tested on: PBMC; assay: Antiproliferative activity against human PBMCs at 14 ug/ml after 48 hrs by CFSE fluorescence staining-based flow cytometry; assay type: cell-based
# [46] = tested on: PBMC; assay: Antiproliferative activity against human PBMCs at 7 ug/ml after 48 hrs by CFSE fluorescence staining-based flow cytometry; assay type: cell-based
# [47] = tested on: PBMC; assay: Reduction in membrane potential in human PBMCs at 14 ug/ml after 24 hrs using DiOC6(3) by flow cytometry; assay type: ADME, cell-based; design: scale not given: the % may be the effect or the level left
# [48] = tested on: Aspergillus terreus; assay: Antifungal activity against Aspergillus terreus after 48 hrs by broth dilution method; assay type: functional
# [49] = tested on: Aspergillus fumigatus; assay: Antifungal activity against Aspergillus fumigatus after 48 hrs by broth dilution method; assay type: functional
# [50] = tested on: Aspergillus niger; assay: Antifungal activity against Aspergillus niger after 48 hrs by broth dilution method; assay type: functional
smiles,measurement,setting,value
CC(C)C1=CC(=O)C2=C(CC[C@H]3[C@](C)(C(=O)O)CCC[C@]23C)C1=O,Activity,[1],Non-toxic
same,Activity,[2],inactive
same,Activity,[3],inactive
same,Activity,[4],Toxic
same,Activity,[5],Non-toxic
same,Activity,[6],Non-toxic
same,Activity,[7],Active
same,Activity,[8],inactive
same,Activity,[9],Active
same,Activity,[10],Toxic
same,Activity,[11],inactive
same,Activity,[12],inactive
same,Activity,[13],inactive
same,Activity,[14],Non-toxic
same,inhibition (INH),[15],Dose-dependent effect
same,Activity,[16],Non-toxic
same,Activity,[17],Active
same,Activity,[18],Active
same,Activity,[19],inactive
same,Activity,[20],inactive
same,Activity,[21],inactive
same,Activity,[22],Non-toxic
same,Activity,[23],Non-toxic
same,Activity,[24],inactive
same,Activity,[25],Non-toxic
same,Activity,[26],Active
same,inhibition,[27],Dose-dependent effect
same,Activity,[28],inactive
same,Activity,[29],inactive
same,Activity,[30],inactive
same,Activity,[31],inactive
same,Activity,[32],Active
same,Activity,[33],inactive
same,Activity,[34],inactive
same,Activity,[35],inactive
same,selectivity ratio,[36],8.96
same,Activity,[37],inactive
same,selectivity ratio,[38],4.74
same,inhibition,[39],Dose-dependent effect
same,Activity,[40],Non-toxic
same,Activity,[41],inactive
COC(=O)[C@]1(C)CCC[C@]2(C)C3=C(CC[C@@H]12)C(=O)C(C(C)C)=CC3=O,inhibition (INH),[15],Dose-dependent effect
same,Activity,[24],inactive
same,inhibition,[27],Dose-dependent effect
same,Activity,[28],inactive
same,Activity,[29],inactive
same,Activity,[35],inactive
same,selectivity ratio,[36],2.34
same,selectivity ratio,[38],1.23
same,inhibition,[39],Dose-dependent effect
same,Activity,[41],inactive
CC(C)C1=CC(=O)C2=C(CC[C@H]3[C@](C)(CO)CCC[C@]23C)C1=O,Activity,[1],Non-toxic
same,Activity,[2],inactive
same,Activity,[3],12%
same,Activity,[4],75%
same,Activity,[42],88%
same,Activity,[5],Non-toxic
same,Activity,[6],Non-toxic
same,Activity,[7],Active
same,Activity,[8],25%
same,Activity,[9],Active
same,Activity,[10],90%
same,Activity,[11],35%
same,Activity,[12],13%
same,Activity,[13],inactive
same,Activity,[14],Non-toxic
same,Activity,[43],20%
same,inhibition (INH),[15],Dose-dependent effect
same,Activity,[16],Non-toxic
same,Activity,[17],Active
same,Activity,[44],77%
same,Activity,[18],86%
same,Activity,[19],35%
same,Activity,[20],inactive
same,Activity,[21],15%
same,Activity,[22],Non-toxic
same,Activity,[23],Non-toxic
same,Activity,[24],inactive
same,Activity,[26],Active
same,inhibition,[27],Dose-dependent effect
same,Activity,[28],inactive
same,Activity,[29],inactive
same,Activity,[45],82%
same,Activity,[30],10%
same,Activity,[31],15%
same,Activity,[46],77%
same,Activity,[32],26%
same,Activity,[33],inactive
same,Activity,[34],inactive
same,Activity,[35],inactive
same,selectivity ratio,[36],5.46
same,Activity,[47],90%
same,Activity,[37],Active
same,selectivity ratio,[38],1
same,inhibition,[39],Dose-dependent effect
same,Activity,[41],inactive
CC(C)c1ccc2c(c1O)CC[C@H]1[C@](C)(C(=O)O)CCC[C@]21C,inhibition (INH),[15],Dose-dependent effect
same,Activity,[24],inactive
same,inhibition,[27],Dose-dependent effect
same,Activity,[28],inactive
same,Activity,[29],inactive
same,Activity,[35],inactive
same,selectivity ratio,[36],3.09
same,selectivity ratio,[38],0.77
same,inhibition,[39],Dose-dependent effect
same,Activity,[41],inactive
CC(C)c1ccc2c(c1O)CC[C@H]1[C@](C)(CO)CCC[C@]21C,MIC,[48],25 mg/L
same,inhibition (INH),[15],Dose-dependent effect
same,MIC,[49],25 mg/L
same,Activity,[24],inactive
same,inhibition,[27],Dose-dependent effect
same,Activity,[28],inactive
same,MIC,[50],50 mg/L
same,Activity,[29],inactive
same,Activity,[35],inactive
same,selectivity ratio,[36],2.3
same,selectivity ratio,[38],0.71
same,inhibition,[39],Dose-dependent effect
same,Activity,[41],inactive
COC(=O)[C@]1(C)CCC[C@]2(C)c3ccc(C(C)C)c(O)c3CC[C@@H]12,inhibition (INH),[15],Dose-dependent effect
same,Activity,[24],inactive
same,inhibition,[27],Dose-dependent effect
same,Activity,[28],inactive
same,Activity,[29],inactive
same,Activity,[35],inactive
same,selectivity ratio,[36],2.59
same,selectivity ratio,[38],1.9
same,inhibition,[39],Dose-dependent effect
same,Activity,[41],inactive
